This note sets out measurements from ChEMBL document CHEMBL1132881, “First pharmacophoric hypothesis for 5-HT7 antagonism” (Bioorg Med Chem Lett, 2000).

T2 sequence (P34969 whole entry): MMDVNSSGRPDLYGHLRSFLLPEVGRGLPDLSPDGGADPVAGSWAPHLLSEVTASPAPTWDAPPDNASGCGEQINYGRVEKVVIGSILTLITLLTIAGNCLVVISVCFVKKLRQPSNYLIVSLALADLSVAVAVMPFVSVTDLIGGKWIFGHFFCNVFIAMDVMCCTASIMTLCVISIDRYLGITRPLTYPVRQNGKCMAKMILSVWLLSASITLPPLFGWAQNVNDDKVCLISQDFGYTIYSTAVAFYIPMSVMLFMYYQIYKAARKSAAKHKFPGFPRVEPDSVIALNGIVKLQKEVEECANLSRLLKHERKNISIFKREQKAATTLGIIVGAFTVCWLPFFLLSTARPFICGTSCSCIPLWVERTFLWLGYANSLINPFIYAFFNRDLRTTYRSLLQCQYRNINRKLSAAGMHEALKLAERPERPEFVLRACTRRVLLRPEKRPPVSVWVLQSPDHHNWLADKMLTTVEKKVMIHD

For the first assay, the target named is T1, 5-hydroxytryptamine receptor 7 (Rattus norvegicus, UniProt P32305). Briefly: Binding affinity against 5-hydroxytryptamine 7 receptor using [3H]-5-CT in rat hypothalamus membranes. Type of assay: cell membranes, Membrane.
T1 sequence (P32305 whole entry): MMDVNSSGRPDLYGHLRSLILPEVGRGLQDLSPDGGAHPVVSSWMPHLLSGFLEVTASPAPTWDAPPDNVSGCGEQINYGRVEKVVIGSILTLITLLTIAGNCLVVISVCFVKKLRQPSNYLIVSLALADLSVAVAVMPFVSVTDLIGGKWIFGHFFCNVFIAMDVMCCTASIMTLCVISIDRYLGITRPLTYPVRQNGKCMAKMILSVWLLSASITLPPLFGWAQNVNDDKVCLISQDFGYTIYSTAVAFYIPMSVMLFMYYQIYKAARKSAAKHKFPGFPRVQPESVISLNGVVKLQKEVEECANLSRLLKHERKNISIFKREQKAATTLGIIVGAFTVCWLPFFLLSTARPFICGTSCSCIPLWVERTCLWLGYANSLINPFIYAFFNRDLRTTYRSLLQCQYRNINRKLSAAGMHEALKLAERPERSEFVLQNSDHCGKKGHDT
What is called Ki is the dissociation constant of the complex between target and ligand, obtained from inhibition or displacement. Compound `CN1CCN(CCCCN2c3cccc4cccc(c34)S2(=O)=O)CC1` showed a Ki above 10 µM.
Take `CC1CCN(CCCCCN2c3cccc4cccc(c34)S2(=O)=O)CC1`: the Ki is above 10 µM.
`CC1CCN(CCCCN2c3cccc4cccc(c34)S2(=O)=O)CC1` gave a Ki above 10 µM.
`COc1ccccc1N1CCN(CCCCCCN2c3cccc4cccc(c34)S2(=O)=O)CC1` showed a Ki of 0.2 µM.
Same read-out and setting: to `O=S1(=O)c2cccc3cccc(c23)N1CCCCCN1CCN(c2ccccc2)CC1` belongs 0.2 µM; to `COc1ccccc1N1CCN(CCCCN2c3cccc4cccc(c34)S2(=O)=O)CC1`, 0.2 µM; to `O=C1c2cccc3cccc(c23)N1CCCCN1CCCCC1`, above 10 µM.
Same read-out and setting: for `CN1CCN(CCCCN2C(=O)c3cccc4cccc2c34)CC1` the value was above 10 µM.
Still for that read-out and setting: to `CC(C)C1CCN(CCCCN2C(=O)c3cccc4cccc2c34)CC1` belongs 0.2 µM; to `COc1ccccc1N1CCN(CCCCCN2C(=O)c3cccc4cccc2c34)CC1`, 0.1 µM; to `O=S1(=O)c2cccc3cccc(c23)N1CCCCN1CCCCC1`, above 10 µM.
The compound `CC1CCN(CCCCN2C(=O)c3cccc4cccc2c34)CC1` had a Ki above 1 µM.
Still for that read-out and setting: to `COc1ccccc1N1CCN(CCCCN2C(=O)c3cccc4cccc2c34)CC1` belongs 0.0631 µM; to `COc1ccccc1N1CCN(CCCCCN2c3cccc4cccc(c34)S2(=O)=O)CC1`, 0.251 µM.
In turn, `O=C1c2cccc3cccc(c23)N1CCCCCN1CCN(c2ccccc2)CC1` [UCM-5600] gave a Ki of 0.0794 µM.

Another assay addresses T1, 5-hydroxytryptamine receptor 7. Briefly: Binding affinity towards 5-hydroxytryptamine 7 receptor.
Take `CCN(CC)C(=O)[C@@H]1C=C2c3cccc4[nH]c(Br)c(c34)C[C@H]2N(C)C1`: the affinity corresponds to a Ki of 0.01 µM.
On to `CN1C[C@H](CNC(=O)OCc2ccccc2)C[C@@H]2c3cccc4c3c(cn4C)C[C@H]21` [METERGOLINE], for which the affinity corresponds to a Ki of 0.00631 µM.
On the same count and under the same terms, to `Cc1nc2sccn2c(=O)c1CCN1CCC(=C(c2ccc(F)cc2)c2ccc(F)cc2)CC1` [RITANSERIN] belongs 0.0158 µM.
On the same count and under the same terms, for `Cc1cccc(S(=O)(=O)N2CCC[C@@H]2CCN2CCC(C)CC2)c1` [SB-258741] the value was 0.00316 µM.

Another assay addresses T2, 5-hydroxytryptamine receptor 7 (Homo sapiens, UniProt P34969). As to the kind of experiment: Binding affinity towards cloned human 5-hydroxytryptamine 7 receptor in HEK 293 cells. It counts as cell-based, HEK293.
The compound `O=C1Nc2cccc3c2C1(CCCCN1CCN(C2CCCCC2)CC1)CCC3` (stereo not drawn) showed an inhibitory constant (Ki) of 10 µM.
On the same count and under the same terms, to `C[C@H]1CCCN(CC[C@H](C)N(C)S(=O)(=O)c2cccc3ccccc23)C1` belongs 10 µM.

For another assay, the target named is T2, 5-hydroxytryptamine receptor 7. As to the kind of experiment: Binding affinity towards human recombinant 5-hydroxytryptamine 7 receptor using [3H]5-CT as radioligand.
In the case of `O=C1Nc2cccc3c2C1(CCCCN1CCN(c2ccccc2)CC1)CCC3` (stereo not drawn), the Ki is 0.00316 µM.
Regarding `COc1ccccc1N1CCN(CCCCC23CCCc4cccc(c42)NC3=O)CC1` (stereo not drawn), the Ki was 0.00501 µM.
For `O=C1Nc2cccc3c2C1(CCCCN1CCC(c2ccccc2)CC1)CCC3` (stereo not drawn), the Ki was 0.002 µM.
Same read-out and setting: to `O=C1Nc2cccc3c2C1(CCCN1CCN(c2ccccc2)CC1)CCC3` (stereo not drawn) belongs 0.00501 µM; to `O=C1Nc2cccc3c2C1(CCN1CCN(c2ccccc2)CC1)CCC3` (stereo not drawn), 0.1 µM.
The same measure, in the same setting: to `N#Cc1ccccc1N1CCN(CCCCC23CCCc4cccc(c42)NC3=O)CC1` (stereo not drawn) belongs 0.00398 µM; to `O=C1Nc2cccc3c2C1(CCCCN1CCN(c2ccccn2)CC1)CCC3` (stereo not drawn), 0.002 µM.
